Like-named read-outs stand apart in the source and are kept apart here. Peptide text beside a SMILES is read from it.
What was measured:
Assay type in all cases: cell-based
[1] = tested on: NCI-H929 multiple myeloma cell line; experiment: H929 assay (cell viability, Celltiter-Glo); settings: Homo sapiens, NCI-H929; 48 hours, cell viability; read-out: H929 EC50
Outline: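 Cells plated in RPMI 1640 with 10% FBS and 2 mM glutamine, treated with compound dilutions in DMSO/media. Incubation 48 h at 37° C, 5% CO2. Viability from luciferase luminescence signal.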

[2] = tested on: PD1-ss+10aa/Gaussia Luciferase; experiment: Dox induced PD1-ss-Gluc assay; settings: Flp-In 293 T-REx cells, doxycycline, 24 hours; read-out: PD1ss Gluc IC50
Outline: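 Stable Flp-In 293 T-REx line expressing doxycycline-inducible Gaussia luciferase fused to the PD1 signal sequence plus 10 amino acids. Cells plated the day before, then exposed to compound dilutions in DMSO/media containing doxycycline at 37 °C, 5% CO2.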

[3] = tested on: JJN3 plasma cell leukemia cell line; experiment: JJN-3 assay (Alamar blue); settings: Homo sapiens, 72 h
Outline: (§1)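 For both lines, 5000 cells/well were exposed to compound or a 1% DMSO-medium control for 72 h unless otherwise specified. Signal was normalized to the DMSO control.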

[4] = tested on: TNFα-FL/Gaussia Luciferase; experiment: Dox induced TNFα-FL-Gluc assay; settings: Flp-In 293 T-REx cells, doxycycline, 24 hours; read-out: TNFa FL Gluc IC50
Outline: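 Stable Flp-In 293 T-REx line expressing full-length TNFα (aa 1-233) fused at its C-terminus to Gaussia luciferase under doxycycline-inducible control. Cells plated the day before, then given compound dilutions in DMSO/media containing doxycycline and incubated at 37 °C, 5% CO2.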

[5] = tested on: FLT3ss-Gluc; experiment: FLT3ss assay
Experimental: The mature domain of secreted luciferase from Gaussia princeps (GLuc) was cloned into pcDNA5/FRT/TO. The signal sequence plus four amino acids of the mature domain from FLT3 ([…]) (SEQ ID NO:7) were cloned upstream of GLuc mature domain and used in transient transfection experiment.
(§2) HEK-293T T-rex cells were cultured in Dulbecco's modified Eagle's medium with 10% FBS at 5% CO2. Cells were plated 1×10e6 cells per well in a 6-well plate and incubated for 6 h. Cells were transiently transfected with FLT3ss-Gluc using Lipofectamine 2000 (Invitrogen). After overnight incubation, transfected cells were replated in a clear-bottomed, black 96-well plate at a density of 20,000 cells per well. Six hours after plating, the cells were treated with doxycycline (1 μg/ml) and increasing concentrations of the indicated compounds for 24 h. Secreted luciferase in the conditioned media was quantified by luminescence using the BioLux Gaussia Luciferase Assay Kit (New England Biolabs, Ipswich, Mass., USA) and a SpectraMax M5 plate reader (Molecular Devices).

[6] = tested on: BT474 breast tumor cell line; experiment: BT474 assay (Alamar blue); settings: Homo sapiens, BT-474, 72 h
Outline: as §1

[7] = tested on: IL7Rss-Gluc; experiment: IL7Rss assay
Experimental: as §2, with “The mature domain of secreted luciferase from Gaussia princeps (GLuc) was cloned into pcDNA5/FRT/TO. The signal sequence plus four amino acids of the mature domain from IL7R ([…]) (SEQ ID NO:6) were cloned upstream of GLuc mature domain and used in transient transfection experiment. HEK-293T” for “HEK-293T”, “IL7Rss-Gluc” for “FLT3ss-Gluc”

SMILES | EC50 [1] | IC50 [2] | EC50 [3] | IC50 [4] | IC50 ([5]; read-out: FLT3ss IC50; HEK-293T T-rex cells, transient transfection, doxycycline, 24 h) | EC50 [6] | IC50 ([7]; read-out: IL7Rss IC50; HEK-293T T-rex cells, transient transfection, doxycycline, 24 h) | IC50 ([5]; HEK-293T T-rex cells, transient transfection, doxycycline, 24 h; read-out: FLT3ss IC50) | IC50 ([7]; HEK-293T T-rex cells, transient transfection, doxycycline, 24 h; read-out: IL7Rss IC50)
C#CC[C@H]1OC(=O)[C@H](C)N(C)C(C)[C@H](C[C@H](C)CCCC)NC(=O)[C@H](Cc2ccccc2)N(C)C(=O)[C@H](CC(C)C)NC(=O)[C@H](CC(C)C)N(C)C(=O)[C@H](C[C@H](C)CCCC)NC1=O (some centres unmarked) [C-01] | 0.454 µM | 0.056 µM | 0.222 µM | 0.079 µM | 0.052 µM | 0.73 µM | 0.023 µM |  | 
CC(C)C[C@@H]1NC(=O)[C@H](Cc2cn(Cc3ccccc3)c3ccccc23)N(C)C(=O)[C@H](CC(C)C)NC(=O)[C@H](CC(C)C)N(C)C(=O)[C@H](CC(C)C)NC(=O)[C@@H](CCC#N)OC(=O)[C@H](C)N(C)C1=O [C-16] (HELM PEPTIDE1{L.[meA].[N#CCC[C@@H](O[*:1])C(=O)[*:2]].L.[meL].L.[CN([C@@H](Cc1cn(Cc2ccccc2)c2ccccc12)C(=O)[*:2])[*:1]]}$PEPTIDE1,PEPTIDE1,1:R1-7:R2$$$V2.0) | 0.941 µM | 0.027 µM | 0.245 µM | 0.092 µM |  | 0.745 µM |  | 0.032 µM | 0.01 µM

— patent US11339193B2, “CDP protein secretion inhibitors” (KEZAR LIFE SCIENCES, priority 2018, dated 2022)
